Source: paper PMC6848912 (British Journal of Clinical Pharmacology, 2019)

What was measured:
[1] = Population pharmacokinetic analysis; type: in vivo
[2] = cited from earlier work
[3] = Inc. data on file, cited from earlier work
[4] = in combination with carboplatin + paclitaxel; cited from earlier work
[5] = concurrent administration of carboplatin + paclitaxel
[6] = nonparametric bootstrap of final PPK model

## NS(=O)(=O)OC[C@@H]1C[C@@H](n2ccc3c(N[C@H]4CCc5ccccc54)ncnc32)C[C@@H]1O [pevonedistat, Pevonedistat]
[1]; [5]
  average increase in pevonedistat exposure (AUC): 79%
  average increase in pevonedistat exposure (AUC), fold: 1.79 fold
[1]; covariate analysis
  impact of race, sex, age, tumour type, mild or moderate renal impairment (CrCL ≥30 mL/min), mild hepatic impairment on pevonedistat PK: had no impact on pevonedistat PK
[1]; final PPK model
  IIV_CL (interindividual variability), typical value: 36.6 %CV
  IIV_Q, typical value: 60.5 %CV
  IIV_Vc, typical value: 36.6 %CV
  IIV_Vp, typical value: 36.9 %CV
[1]; final PPK model, (ALB/40)^θ13
  Albumin on Q (exponent), typical value: 1.45
[1]; final PPK model, set the same as BSA on CL
  BSA on Q (exponent), typical value: 1.33
[1]; final PPK model, set the same as BSA on Vc
  BSA on Vp (exponent), typical value: 1.39
[1]; final PPK model, set the same as BSA on Vp
  BSA on Vc (exponent), typical value: 1.39
[1]; human, plasma, intravenous
  Vd: 117 L
[1]; [6]
  Albumin on Q, bootstrap median: 1.45
  BSA on Q, bootstrap median: 1.33
  BSA on Vc, bootstrap median: 1.39
  BSA on Vp, bootstrap median: 1.39
  IIV_CL, bootstrap median: 35.9 %CV
  IIV_Q, bootstrap median: 60.2 %CV
  IIV_Vc, bootstrap median: 36.6 %CV
  IIV_Vp, bootstrap median: 36.7 %CV
  Q, bootstrap median: 22 L/h
  Vc, bootstrap median: 115 L
  Vp, bootstrap median: 121 L
[2]; dose from 25 to 278 mg/m^2
  dose linearity of PK (AUC from time 0 to 24 hours vs dose): linear
[2]; once-daily dosing for 5 consecutive days or intermittent dosing
  drug accumulation: little or no notable drug accumulation
[3]; ref Millennium Pharmaceuticals
  renal clearance contribution to total systemic clearance: < 5%
[3]; ref Takeda Millennium Pharmaceuticals
  renal elimination pathway, share of total plasma clearance: 2.5%
[4]
  maximum tolerated dose (MTD) / recommended Phase II dose: 20 mg/m^2
